Read-outs that look alike come from different tables or passages of the source.
Experiments:
MDA-MB-231 = test: Cytotoxicity secondary screen (IC50); assay type: cell-based; settings: Homo sapiens, 48 h exposure, mean of triplicates, NE: no effect
HuH7 [1] = test: Cytotoxicity primary screen (single dose); assay type: cell-based; set-up: dose or concentration left out as unconfirmed; settings: Homo sapiens, Huh-7; 48 h exposure, mean of triplicates; read-out: percentage of cell survival over DMSO control, HuH7
MDA-MB-468 = test: Cytotoxicity secondary screen (IC50); assay type: cell-based; settings: Homo sapiens, 48 h exposure, mean of triplicates, NE: no effect
HCT-116 = test: Cytotoxicity secondary screen (IC50); assay type: cell-based; settings: Homo sapiens, 48 h exposure, mean of triplicates, NE: no effect
Description: (§1) Next, we performed a cytotoxicity screening of the nineteen molecules 4a–s, at 25 μM, investigating seven representative cancer cell lines: hepatocellular carcinoma HuH-7, colorectal adenocarcinoma CaCo-2, breast carcinoma MDA-MB-231 and MDA-MB-468, colorectal carcinoma HCT-116, prostate carcinoma PC3 and breast carcinoma MCF7. […] For details see: ref. [2] and Supporting Information File 1, Table S1.
(§2) Cell culture. Skin normal fibroblastic cells are purchased from Lonza (Basel, Switzerland), HuH-7, Caco-2, MDA-MB-231, HCT-116, PC3, MCF7 and NCI-H727 cancer cell lines were obtained from ATCC (American Type Culture Collection). Cells are grown at 37 °C, 5% CO2 in ATCC recommended media: DMEM for HuH-7, MDA-MB-231, MDA-MB-468 and fibroblast, EMEM for MCF7 and CaCo-2, McCoy’s for HCT-116 and RPMI for PC3 and NCI-H727. All culture media are supplemented by 10% of FBS, 1% of penicillin-streptomycin and 2 mM glutamine.
(§3) Both studies have been performed following the protocols described in a previous paper, see ref. [2].

Caco-2 [2] = test: Cytotoxicity secondary screen (IC50); assay type: cell-based; settings: Homo sapiens, 48 h exposure, mean of triplicates, NE: no effect
Description: as §1, §2, §3

Caco-2 [3] = test: Cytotoxicity primary screen (single dose); assay type: cell-based; settings: 48 h exposure, mean of triplicates
Description: as §1, §2, §3
(§4) Table S1: Cytotoxicity studies (single dose at 25µM) of N-arylbenzo[h]quinazolin-2-amines 4a–s
(§5) The toxicity is expressed as the percentage of cell survival (from 100 % to 0 %) over DMSO control after 48 h exposure (mean of triplicates).
(§6) Effect of the solvent (DMSO) was studied at 0.25%.

MDA231 = test: Cytotoxicity primary screen (single dose); assay type: cell-based; set-up: viability: dose or concentration left out as unconfirmed; settings: Homo sapiens, MDA-MB-231, 48 h exposure, mean of triplicates, read-out: percentage of cell survival over DMSO control, MDA231; for viability at 25 µM: single dose 25 μM
Description: as §1, §2, §3, §4, §5, §6

PC3 [4] = test: Cytotoxicity primary screen (single dose); assay type: cell-based; set-up: viability: dose or concentration left out as unconfirmed; settings: Homo sapiens, PC-3, 48 h exposure, mean of triplicates, read-out: percentage of cell survival over DMSO control, PC3; for viability at 25 µM: single dose 25 μM
Description: as §1, §2, §3, §4, §5, §6

HCT116 = test: Cytotoxicity primary screen (single dose); assay type: cell-based; set-up: viability: dose or concentration left out as unconfirmed; settings: Homo sapiens, HCT-116, 48 h exposure, mean of triplicates, read-out: percentage of cell survival over DMSO control, HCT116; for viability at 25 µM: single dose 25 μM
Description: as §1, §2, §3, §4, §5, §6

MCF7 [5] = test: Cytotoxicity primary screen (single dose); assay type: cell-based; set-up: viability: dose or concentration left out as unconfirmed; settings: Homo sapiens, 48 h exposure, mean of triplicates, read-out: percentage of cell survival over DMSO control, MCF7; for viability at 25 µM: single dose 25 μM
Description: as §1, §2, §3, §4, §5, §6

PC3 [6] = test: Cytotoxicity secondary screen (IC50); assay type: cell-based; settings: Homo sapiens, PC-3; 48 h exposure, mean of triplicates; NE: no effect
Description: as §2, §3

HuH-7 = test: Cytotoxicity secondary screen (IC50); assay type: cell-based; settings: Homo sapiens, 48 h exposure, mean of triplicates, NE: no effect
Description: as §2, §3

MCF7 [7] = test: Cytotoxicity secondary screen (IC50); assay type: cell-based; settings: Homo sapiens, 48 h exposure, mean of triplicates, NE: no effect
HuH7 [8] = test: Cytotoxicity primary screen (single dose); assay type: cell-based; settings: Homo sapiens, Huh-7; single dose 25 μM, 48 h exposure, mean of triplicates; read-out: percentage of cell survival over DMSO control, HuH7
Description: as §1, §2, §3, §4, §5, §6

MDA468 = test: Cytotoxicity primary screen (single dose); assay type: cell-based; set-up: viability: dose or concentration left out as unconfirmed; settings: 48 h exposure, mean of triplicates, read-out: percentage of cell survival over DMSO control, MDA468; for viability at 25 µM: single dose 25 μM
Description: as §1, §2, §3, §4, §5, §6

normal human fibroblasts = test: Cytotoxicity secondary screen (IC50); assay type: cell-based; settings: Fibroblast, 48 h exposure, mean of triplicates, NE: no effect, highest concentration tested 25 μM, read-out: IC50 Fibro
Description: as §2, §3

[9] = tested on: seven representative tumor cell lines; test: Cytotoxicity IC50, summary over several cell lines; assay type: cell-based; settings: read-out: IC50 (span over cell lines)
Description: as §2, with “For details see: ref. [2] and Supporting Information File 1, Table S1. […] [table] Cell culture.” for “Cell culture.”, “mM glutamine. Both studies have been performed following the protocols described in a previous paper, see ref. [2].” for “mM glutamine.”

DYRKs kinases = tested on: DYRKs kinases; set-up: method as in PMID 33422908, PMID 36234686; settings: at 100 μM; cited from earlier work
[10] = reference compound at 0.025 M (so in the source)

| Compound | IC50 (MDA-MB-231) [µM] | IC50 (MDA-MB-468) [µM] | IC50 (HCT-116) [µM] | IC50 (Caco-2 [2]) [µM] | IC50 (PC3 [6]) [µM] | IC50 (HuH-7) [µM] | IC50 (MCF7 [7]) [µM] | viability at 25 µM (HuH7 [8]) [%] | percentage of cell survival over DMSO control, CaCo-2 (Caco-2 [3]; single dose 25 μM) [%] | viability at 25 µM (MDA468) [%] | viability at 25 µM (MDA231) [%] | viability at 25 µM (PC3 [4]) [%] | viability at 25 µM (HCT116) [%] | viability at 25 µM (MCF7 [5]) [%] | IC50 (normal human fibroblasts) [µM] | other results |
| --- | --- | --- | --- | --- | --- | --- | --- | --- | --- | --- | --- | --- | --- | --- | --- | --- |
| CC(=O)O[C@H]1C(=O)[C@@]2(C)[C@H]([C@H](OC(=O)c3ccccc3)[C@]3(O)C[C@H](OC(=O)[C@H](O)[C@@H](NC(=O)c4ccccc4)c4ccccc4)C(C)=C1C3(C)C)[C@]1(OC(C)=O)CO[C@@H]1C[C@@H]2O [Taxol, reference compound] | 0.02 | 0.006 | 0.003 | 0.07 | 0.004 | 0.009 | 0.02 |  |  |  |  |  |  |  |  | viability (HuH7 [1]): 43%; percentage of cell survival over DMSO control, CaCo-2 (Caco-2 [3]; [10]): 36%; viability (MDA231): 32%; viability (PC3 [4]): 30%; viability (HCT116): 7%; viability (MCF7 [5]): 27% |
| c1ccc(Nc2ncc3ccc4ccccc4c3n2)cc1 [Compound 4a, N-phenylbenzo[h]quinazolin-2-amine] | 29 | 6 | 4 | 4.7 | 34.5 | 1.7 | 13 | 60 | 33 | 56 | 61 | 58 | 48 | 59 | > 25 | IC50 ([9]; against HuH-7, Caco-2, MDA-MB-468 and HCT-116 cells): 1.7 to 6 µM |
| COc1cccc2c1C(=O)c1c(O)c3c(c(O)c1C2=O)C[C@@](O)(C(=O)CO)C[C@@H]3O[C@H]1C[C@H](N)[C@H](O)[C@H](C)O1 [doxorubicin, reference compound] | 0.03 | 0.03 | 0.04 |  | 0.06 | 0.03 | 0.07 |  |  |  |  |  |  |  |  | viability (HuH7 [1]): 59%; percentage of cell survival over DMSO control, CaCo-2 (Caco-2 [3]; [10]): 59%; viability (MDA468): 24%; viability (MDA231): 31%; viability (PC3 [4]): 42% |
| Fc1cccc(Nc2ncc3ccc4ccccc4c3n2)c1 [Compound 4i, N-(3-fluorophenyl)benzo[h]quinazolin-2-amine] | 17 | 4 | 6 | 2 | 11 | 17 | 3 | 60 | 34 | 59 | 49 | 36 | 11 | 59 | > 25 | IC50 ([9]; on Caco-2, MDA-MB-468, HCT-116 and MCF7): 2 to 6 µM |
| Cc1ccc(Nc2ncc3ccc4ccccc4c3n2)cc1 [Compound 4d, N-(p-tolyl)benzo[h]quinazolin-2-amine] | > 25 | 31 | 5 | > 25 | 30 | > 25 | > 25 | 85 | 63 | 72 | 67 | 65 | 54 | 61 | > 25 |  |
| Clc1cc(Br)cc(Nc2ncc3ccc4ccccc4c3n2)c1 [Compound 4q, N-(3-bromo-5-chlorophenyl)benzo[h]quinazolin-2-amine] | 20 | 19 | 13 | 14 | 19 | 16 | 14 | 49 | 35 | 38 | 41 | 24 | 13 | 73 | > 25 |  |
| Cc1ccc(-n2cc(COc3cccc4cnc(Nc5cccc(Cl)c5)nc34)nn2)c([N+](=O)[O-])c1 [DB18] |  |  |  |  |  |  |  |  |  |  |  |  |  |  |  | action against DYRKs kinases (DYRKs kinases): does not show any action |

From publication PMC11496704, “Synthesis and cytotoxicity studies of novel N-arylbenzo[h]quinazolin-2-amines” (Beilstein Journal of Organic Chemistry, 2024)
